What was measured:
Type in all cases: cell-based
Settings in all cases: compounds at 50 nM and 500 nM
[1] = biological target: T1, WEE1 (Homo sapiens, UniProt P30291+Q96SW2); assay: Western blot degradation of WEE1 in hPBMCs (24 h)
T1 construct: The supernatant was aspirated as the extracted total cell protein; endogenous in cells; host or cells: human peripheral blood mononuclear cells (hPBMCs)
Summary of the method: (§1)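 PBMC Western blot, 24 h treatment; test levels 50 nM and 500 nM. Band density ÷ internal control, normalised → % remaining; degradation (%) = 1 − remaining.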

[2] = biological target: T2, IKZF2 (Homo sapiens, UniProt Q96SW2+Q9UKS7); assay: Western blot degradation of IKZF2 in hPBMCs (24 h)
T2 construct: The supernatant was aspirated as the extracted total cell protein; endogenous in cells; host or cells: human peripheral blood mononuclear cells (hPBMCs)
Summary of the method: as §1

[3] = biological target: T3, GSPT1 (Homo sapiens, UniProt P15170+Q96SW2); assay: Western blot degradation of GSPT1 in hPBMCs (24 h)
T3 construct: The supernatant was aspirated as the extracted total cell protein; endogenous in cells; host or cells: human peripheral blood mononuclear cells (hPBMCs)
Summary of the method: as §1

[4] = biological target: T4, CK1α (Homo sapiens, UniProt P48729+Q96SW2); assay: Western blot degradation of CK1α in hPBMCs (24 h)
T4 construct: The supernatant was aspirated as the extracted total cell protein; endogenous in cells; host or cells: human peripheral blood mononuclear cells (hPBMCs)
Summary of the method: as §1

[5] = biological target: T5, IKZF3 (Homo sapiens, UniProt Q96SW2+Q9UKT9); assay: Western blot degradation of IKZF3 in hPBMCs (24 h)
T5 construct: The supernatant was aspirated as the extracted total cell protein; endogenous in cells; host or cells: human peripheral blood mononuclear cells (hPBMCs)
Summary of the method: as §1

[6] = biological target: T6, IKZF1 (Homo sapiens, UniProt Q13422+Q96SW2); assay: Western blot degradation of IKZF1 in hPBMCs (24 h)
T6 construct: The supernatant was aspirated as the extracted total cell protein; endogenous in cells; host or cells: human peripheral blood mononuclear cells (hPBMCs)
Summary of the method: as §1

T1 sequence (P30291 whole entry): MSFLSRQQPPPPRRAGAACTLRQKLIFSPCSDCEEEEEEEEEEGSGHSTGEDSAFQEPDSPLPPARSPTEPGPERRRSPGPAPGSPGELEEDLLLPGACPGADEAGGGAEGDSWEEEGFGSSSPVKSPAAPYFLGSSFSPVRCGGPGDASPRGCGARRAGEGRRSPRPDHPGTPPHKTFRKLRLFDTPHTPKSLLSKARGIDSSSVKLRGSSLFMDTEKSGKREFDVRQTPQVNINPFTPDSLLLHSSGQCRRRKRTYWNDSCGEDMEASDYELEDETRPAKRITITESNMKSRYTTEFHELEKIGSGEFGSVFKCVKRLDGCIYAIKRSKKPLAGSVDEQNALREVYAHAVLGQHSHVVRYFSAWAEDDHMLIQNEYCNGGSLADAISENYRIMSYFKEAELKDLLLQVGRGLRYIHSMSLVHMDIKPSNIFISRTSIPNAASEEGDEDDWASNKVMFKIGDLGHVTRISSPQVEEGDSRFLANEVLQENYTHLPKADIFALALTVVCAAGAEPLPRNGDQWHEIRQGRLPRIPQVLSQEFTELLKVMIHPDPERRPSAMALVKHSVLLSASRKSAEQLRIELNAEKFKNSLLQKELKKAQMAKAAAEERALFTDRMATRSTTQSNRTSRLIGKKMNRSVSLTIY
T1 sequence (Q96SW2 whole entry): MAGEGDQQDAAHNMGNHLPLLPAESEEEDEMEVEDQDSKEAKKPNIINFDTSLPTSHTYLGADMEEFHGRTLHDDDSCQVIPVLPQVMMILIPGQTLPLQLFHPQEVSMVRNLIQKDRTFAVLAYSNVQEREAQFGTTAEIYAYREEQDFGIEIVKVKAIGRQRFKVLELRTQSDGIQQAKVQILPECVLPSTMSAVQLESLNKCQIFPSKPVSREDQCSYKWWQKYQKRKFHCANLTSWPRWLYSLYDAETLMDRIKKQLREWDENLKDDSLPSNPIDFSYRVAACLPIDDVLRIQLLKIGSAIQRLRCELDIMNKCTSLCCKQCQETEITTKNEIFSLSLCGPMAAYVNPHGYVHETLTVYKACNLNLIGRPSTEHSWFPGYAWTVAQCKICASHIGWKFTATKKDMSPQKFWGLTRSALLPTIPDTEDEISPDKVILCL
T1 sequence (Q16531 whole entry partner): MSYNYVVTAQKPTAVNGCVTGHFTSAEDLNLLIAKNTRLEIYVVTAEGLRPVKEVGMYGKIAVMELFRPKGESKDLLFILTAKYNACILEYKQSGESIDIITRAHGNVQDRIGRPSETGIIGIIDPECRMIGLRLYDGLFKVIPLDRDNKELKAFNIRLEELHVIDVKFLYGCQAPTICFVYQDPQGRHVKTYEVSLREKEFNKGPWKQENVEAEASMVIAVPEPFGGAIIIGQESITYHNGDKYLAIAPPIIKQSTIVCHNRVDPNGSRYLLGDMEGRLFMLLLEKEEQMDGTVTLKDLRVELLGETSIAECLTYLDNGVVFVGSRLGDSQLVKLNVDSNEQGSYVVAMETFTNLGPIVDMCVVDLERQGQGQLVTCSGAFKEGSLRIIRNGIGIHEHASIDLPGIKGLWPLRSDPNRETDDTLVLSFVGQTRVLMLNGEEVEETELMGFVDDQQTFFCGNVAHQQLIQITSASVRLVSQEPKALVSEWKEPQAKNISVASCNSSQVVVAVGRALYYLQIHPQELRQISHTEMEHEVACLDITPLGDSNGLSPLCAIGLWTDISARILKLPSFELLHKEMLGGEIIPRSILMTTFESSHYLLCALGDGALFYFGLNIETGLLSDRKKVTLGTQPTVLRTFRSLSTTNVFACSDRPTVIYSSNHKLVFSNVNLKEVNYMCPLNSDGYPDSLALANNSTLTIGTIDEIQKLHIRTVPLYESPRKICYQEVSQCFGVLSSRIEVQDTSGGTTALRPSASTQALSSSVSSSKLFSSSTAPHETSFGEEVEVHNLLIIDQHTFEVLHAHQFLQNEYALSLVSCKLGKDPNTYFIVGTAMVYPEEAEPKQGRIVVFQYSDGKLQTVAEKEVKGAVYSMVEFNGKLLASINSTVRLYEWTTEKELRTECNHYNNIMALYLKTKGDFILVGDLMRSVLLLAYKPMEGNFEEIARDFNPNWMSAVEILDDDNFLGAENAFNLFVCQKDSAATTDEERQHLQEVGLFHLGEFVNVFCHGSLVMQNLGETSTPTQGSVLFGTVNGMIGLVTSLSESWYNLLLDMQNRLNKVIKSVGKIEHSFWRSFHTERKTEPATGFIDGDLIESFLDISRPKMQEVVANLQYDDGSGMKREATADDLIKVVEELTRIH
T2 sequence (Q9UKS7 whole entry): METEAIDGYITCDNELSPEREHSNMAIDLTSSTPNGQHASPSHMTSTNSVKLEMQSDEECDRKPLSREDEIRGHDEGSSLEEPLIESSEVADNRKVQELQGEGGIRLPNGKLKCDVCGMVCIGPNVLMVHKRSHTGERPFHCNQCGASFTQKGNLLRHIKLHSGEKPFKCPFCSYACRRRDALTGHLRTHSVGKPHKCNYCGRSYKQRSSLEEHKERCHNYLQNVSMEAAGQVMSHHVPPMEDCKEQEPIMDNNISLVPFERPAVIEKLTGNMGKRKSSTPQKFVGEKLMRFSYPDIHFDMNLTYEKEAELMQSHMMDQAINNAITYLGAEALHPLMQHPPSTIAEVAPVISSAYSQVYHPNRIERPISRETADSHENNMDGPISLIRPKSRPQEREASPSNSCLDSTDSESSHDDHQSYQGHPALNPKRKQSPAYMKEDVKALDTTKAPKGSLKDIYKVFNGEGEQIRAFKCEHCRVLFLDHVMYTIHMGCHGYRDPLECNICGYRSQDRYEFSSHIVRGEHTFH
T2 sequence (Q96SW2 whole entry): as the sequence (Q96SW2 whole entry) above
T2 sequence (Q16531 whole entry partner): as the sequence (Q16531 whole entry partner) above
T3 sequence (P15170 whole entry): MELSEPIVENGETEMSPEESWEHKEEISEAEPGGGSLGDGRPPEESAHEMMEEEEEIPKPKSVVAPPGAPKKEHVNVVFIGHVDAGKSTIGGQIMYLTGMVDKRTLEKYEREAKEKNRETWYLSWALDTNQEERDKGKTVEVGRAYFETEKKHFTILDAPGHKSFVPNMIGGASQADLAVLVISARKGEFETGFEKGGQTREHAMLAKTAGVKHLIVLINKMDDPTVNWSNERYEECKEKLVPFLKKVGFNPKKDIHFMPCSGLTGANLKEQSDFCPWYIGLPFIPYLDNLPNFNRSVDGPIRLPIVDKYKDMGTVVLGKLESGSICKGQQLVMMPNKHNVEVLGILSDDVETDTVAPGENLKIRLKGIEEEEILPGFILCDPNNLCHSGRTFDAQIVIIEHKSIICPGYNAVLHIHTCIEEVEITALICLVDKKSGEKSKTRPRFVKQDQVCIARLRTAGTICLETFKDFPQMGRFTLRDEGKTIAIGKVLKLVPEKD
T3 sequence (Q96SW2 whole entry): as the sequence (Q96SW2 whole entry) above
T3 sequence (Q16531 whole entry partner): as the sequence (Q16531 whole entry partner) above
T4 sequence (P48729 whole entry): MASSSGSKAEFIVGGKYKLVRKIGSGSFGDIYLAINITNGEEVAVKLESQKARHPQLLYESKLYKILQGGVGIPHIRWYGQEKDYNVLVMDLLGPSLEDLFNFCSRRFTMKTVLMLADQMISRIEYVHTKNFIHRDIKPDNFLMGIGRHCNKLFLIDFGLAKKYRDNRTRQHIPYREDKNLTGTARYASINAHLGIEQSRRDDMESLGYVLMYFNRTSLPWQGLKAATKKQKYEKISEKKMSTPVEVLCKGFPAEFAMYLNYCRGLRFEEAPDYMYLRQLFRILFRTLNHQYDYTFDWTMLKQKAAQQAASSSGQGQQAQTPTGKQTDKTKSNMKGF
T4 sequence (Q96SW2 whole entry): as the sequence (Q96SW2 whole entry) above
T4 sequence (Q16531 whole entry partner): as the sequence (Q16531 whole entry partner) above
T6 sequence (Q13422 whole entry): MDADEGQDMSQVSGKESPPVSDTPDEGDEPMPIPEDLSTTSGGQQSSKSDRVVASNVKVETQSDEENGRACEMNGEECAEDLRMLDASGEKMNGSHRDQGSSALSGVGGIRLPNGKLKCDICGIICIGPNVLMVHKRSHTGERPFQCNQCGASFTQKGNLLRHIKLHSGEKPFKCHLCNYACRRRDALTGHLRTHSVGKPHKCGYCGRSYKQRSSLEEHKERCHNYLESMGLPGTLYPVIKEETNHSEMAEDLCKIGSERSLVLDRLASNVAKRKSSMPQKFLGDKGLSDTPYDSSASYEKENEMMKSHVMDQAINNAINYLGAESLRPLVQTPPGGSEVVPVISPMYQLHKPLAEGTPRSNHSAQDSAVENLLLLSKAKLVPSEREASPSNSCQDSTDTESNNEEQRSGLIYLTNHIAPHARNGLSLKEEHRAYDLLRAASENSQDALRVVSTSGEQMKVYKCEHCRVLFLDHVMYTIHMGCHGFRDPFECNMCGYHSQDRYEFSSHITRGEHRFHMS
T6 sequence (Q96SW2 whole entry): as the sequence (Q96SW2 whole entry) above
T6 sequence (Q16531 whole entry partner): as the sequence (Q16531 whole entry partner) above

Row | SMILES | WEE1 substrate protein remaining % [1] | IKZF2 substrate protein remaining % [2] | GSPT1 substrate protein remaining % [3] | CK1α substrate protein remaining % [4] | IKZF3 substrate protein remaining % [5] | IKZF1 substrate protein remaining % [6]
1 | O=C1CCN(N2C(=O)c3ccc(CN4CCN(c5noc6ccncc56)CC4)cc3C2=O)C(=O)N1 [GT-07525, 2-(2,4-dioxotetrahydropyrimidin-1(2H)-yl)-5-((4-(isoxazolo[4,5-c]pyridin-3-yl)piperazin-1-yl)methyl)isoindoline-1,3-dione] | B (80%< substrate protein remaining % ≤100%) | B (80%< substrate protein remaining % ≤100%) | A (0% ≤ substrate protein remaining % ≤80%) | A (0% ≤ substrate protein remaining % ≤80%) | B (80%< substrate protein remaining % ≤100%) | B (80%< substrate protein remaining % ≤100%)
2 | O=C1CCN(N2C(=O)c3ccc(CN4CCN(c5nsc6cc(F)ccc56)CC4)cc3C2=O)C(=O)N1 [GT-07526, 2-(2,4-dioxotetrahydropyrimidin-1(2H)-yl)-5-((4-(6-fluorobenzo[d]isothiazol-3-yl)piperazin-1-yl)methyl)isoindoline-1,3-dione] | B (80%< substrate protein remaining % ≤100%) | B (80%< substrate protein remaining % ≤100%) | A (0% ≤ substrate protein remaining % ≤80%) | A (0% ≤ substrate protein remaining % ≤80%) | B (80%< substrate protein remaining % ≤100%) | B (80%< substrate protein remaining % ≤100%)
3 | O=C1CCN(N2C(=O)c3ccc(CN4CCN(c5n[nH]c6cc(F)ccc56)CC4)cc3C2=O)C(=O)N1 [GT-07527, 2-(2,4-dioxotetrahydropyrimidin-1(2H)-yl)-5-((4-(6-fluoro-1H-indazol-3-yl)piperazin-1-yl)methyl)isoindoline-1,3-dione] | B (80%< substrate protein remaining % ≤100%) | B (80%< substrate protein remaining % ≤100%) | A (0% ≤ substrate protein remaining % ≤80%) | A (0% ≤ substrate protein remaining % ≤80%) | B (80%< substrate protein remaining % ≤100%) | B (80%< substrate protein remaining % ≤100%)
4 | O=C1CCN(N2C(=O)c3ccc(CN4CCN(c5c[nH]c6ncccc56)CC4)cc3C2=O)C(=O)N1 [GT-07528, 5-((4-(1H-pyrrolo[2,3-b]pyridin-3-yl)piperazin-1-yl)methyl)-2-(2,4-dioxotetrahydropyrimidin-1(2H)-yl)isoindoline-1,3-dione] | B (80%< substrate protein remaining % ≤100%) | B (80%< substrate protein remaining % ≤100%) | A (0% ≤ substrate protein remaining % ≤80%) | A (0% ≤ substrate protein remaining % ≤80%) | B (80%< substrate protein remaining % ≤100%) | B (80%< substrate protein remaining % ≤100%)
5 | O=C1CCN(N2C(=O)c3ccc(CN4CCC(n5cnc6cc(F)ccc65)CC4)cc3C2=O)C(=O)N1 [GT-07529, 2-(2,4-dioxotetrahydropyrimidin-1(2H)-yl)-5-((4-(5-fluoro-1H-benzo[d]imidazol-1-yl)piperidin-1-yl)methyl)isoindoline-1,3-dione] | B (80%< substrate protein remaining % ≤100%) | B (80%< substrate protein remaining % ≤100%) | A (0% ≤ substrate protein remaining % ≤80%) | A (0% ≤ substrate protein remaining % ≤80%) | B (80%< substrate protein remaining % ≤100%) | B (80%< substrate protein remaining % ≤100%)
6 | O=C1CCN(N2C(=O)c3ccc(CN4CCC(c5n[nH]c6cc(F)ccc56)CC4)cc3C2=O)C(=O)N1 [GT-07530, 2-(2,4-dioxotetrahydropyrimidin-1(2H)-yl)-5-((4-(6-fluoro-1H-indazol-3-yl)piperidin-1-yl)methyl)isoindoline-1,3-dione] | A (0% ≤ substrate protein remaining % ≤80%) | B (80%< substrate protein remaining % ≤100%) | A (0% ≤ substrate protein remaining % ≤80%) | A (0% ≤ substrate protein remaining % ≤80%) | B (80%< substrate protein remaining % ≤100%) | B (80%< substrate protein remaining % ≤100%)
7 | O=C1CCN(N2Cc3cc(CN4CCN(c5n[nH]c6cc(F)ccc56)CC4)ccc3C2=O)C(=O)N1 [GT-07545, 1-(5-((4-(6-fluoro-1H-indazol-3-yl)piperazin-1-yl)methyl)-1-oxoisoindolin-2-yl)dihydropyrimidine-2,4(1H,3H)-dione] | A (0% ≤ substrate protein remaining % ≤80%) | B (80%< substrate protein remaining % ≤100%) | A (0% ≤ substrate protein remaining % ≤80%) | A (0% ≤ substrate protein remaining % ≤80%) | B (80%< substrate protein remaining % ≤100%) | A (0% ≤ substrate protein remaining % ≤80%)
8 | O=C1CCN(N2Cc3cc(CN4CC=C(c5c[nH]c6cc(F)ccc56)CC4)ccc3C2=O)C(=O)N1 [GT-07574, 1-(5-((4-(6-fluoro-1H-indol-3-yl)-3,6-dihydropyridin-1(2H)-yl)methyl)-1-oxoisoindolin-2-yl)dihydropyrimidine-2,4(1H,3H)-dione] | A (0% ≤ substrate protein remaining % ≤80%) | A (0% ≤ substrate protein remaining % ≤80%) | A (0% ≤ substrate protein remaining % ≤80%) | A (0% ≤ substrate protein remaining % ≤80%) | B (80%< substrate protein remaining % ≤100%) | B (80%< substrate protein remaining % ≤100%)
9 | O=C1CCN(N2Cc3cc(CN4CCC(c5c[nH]c6ncccc56)CC4)ccc3C2=O)C(=O)N1 [GT-07576, 1-(5-((4-(1H-pyrrolo[2,3-b]pyridin-3-yl)piperidin-1-yl)methyl)-1-oxoisoindolin-2-yl)dihydropyrimidine-2,4(1H,3H)-dione] | A (0% ≤ substrate protein remaining % ≤80%) | A (0% ≤ substrate protein remaining % ≤80%) | A (0% ≤ substrate protein remaining % ≤80%) | A (0% ≤ substrate protein remaining % ≤80%) | B (80%< substrate protein remaining % ≤100%) | A (0% ≤ substrate protein remaining % ≤80%)
10 | O=C1CCN(N2Cc3cc(CN4CCC(n5c(=O)[nH]c6cc(F)ccc65)CC4)ccc3C2=O)C(=O)N1 [GT-07579, 1-(5-((4-(5-fluoro-2-oxo-2,3-dihydro-1H-benzo[d]imidazol-1-yl)piperidin-1-yl)methyl)-1-oxoisoindolin-2-yl)dihydropyrimidine-2,4(1H,3H)-dione] | A (0% ≤ substrate protein remaining % ≤80%) | A (0% ≤ substrate protein remaining % ≤80%) | A (0% ≤ substrate protein remaining % ≤80%) | B (80%< substrate protein remaining % ≤100%) | B (80%< substrate protein remaining % ≤100%) | A (0% ≤ substrate protein remaining % ≤80%)
11 | O=C1CCN(N2C(=O)c3ccc(CN4CC=C(c5c[nH]c6cc(F)ccc56)CC4)cc3C2=O)C(=O)N1 [GT-07580, 2-(2,4-dioxotetrahydropyrimidin-1(2H)-yl)-5-((4-(6-fluoro-1H-indol-3-yl)-3,6-dihydropyridin-1(2H)-yl)methyl)isoindoline-1,3-dione] | A (0% ≤ substrate protein remaining % ≤80%) | A (0% ≤ substrate protein remaining % ≤80%) | A (0% ≤ substrate protein remaining % ≤80%) | B (80%< substrate protein remaining % ≤100%) | A (0% ≤ substrate protein remaining % ≤80%) | A (0% ≤ substrate protein remaining % ≤80%)
12 | Cn1cc(C2CCN(Cc3ccc4c(c3)C(=O)N(N3CCC(=O)NC3=O)C4=O)CC2)c2ccc(F)cc21 [GT-07581, 2-(2,4-dioxotetrahydropyrimidin-1(2H)-yl)-5-((4-(6-fluoro-1-methyl-1H-indol-3-yl)piperidin-1-yl)methyl)isoindoline-1,3-dione] | A (0% ≤ substrate protein remaining % ≤80%) | A (0% ≤ substrate protein remaining % ≤80%) | A (0% ≤ substrate protein remaining % ≤80%) | B (80%< substrate protein remaining % ≤100%) | B (80%< substrate protein remaining % ≤100%) | A (0% ≤ substrate protein remaining % ≤80%)
